Results published in patent US6046018A, “Highly sensitive method for assaying chiro-inositol and compositions for the assay” (priority 1997, dated 2000).
Values joined by “and” are separate entries in the source; they are usually repeats but may differ in a detail not shown here. Identical values can stand only once.

Experiments:
[1] = tested on: crude enzyme which catalyses chiroinositol, S. r. 301 origin; test: Substrate specificity (Table 3); format: biochemical, Streptomyces roseogriseus 301; design: concentration or dose not given beside the values; conditions: enzyme assay reaction solution, D-chiroinositol replaced by substrates
Source text: (§1) In A. r. 1215 origin, the same assay method used in Bacillus sp. No. 3 is applied by replacing coenzyme to thio-NADP. In S. r. 301 origin, the reaction solution used for enzyme assay is used by replacing D-chiroinositol for various concentrations of substrates with adding constant concentration of enzyme solution to assay relative activities.

[2] = tested on: dehydrogenase which catalyses chiroinositol (Bacillus sp. No. 3 origin); test: Substrate specificity (Table 1); format: biochemical; conditions: equal concentration of substrates; glycine-NaOH pH 9.8, thio-NAD/NADH cycling
Experimental: Substrate specificity is assayed by using following reaction solution at the equal concentration of substrates.
200 mM glycine-NaOH buffer (pH 9.8)
0.03 mM NADH (Oriental Yeast Corp., Japan)
100 U/ml dehydrogenase which catalyses chiroinosiol
2 Mm thio-NAD (Oriental Yeast Corp., Japan)
D-chiroinositol, galactose, fructose, mannitol, mannose; Japan, Wako Pure Chemicals Inc., myo-, epi-, scyllo-inositol U.S.A. SIGMA Corp.

[3] = tested on: crude enzyme which catalyses chiroinositol, A. r. 1215 origin; test: Substrate specificity (Table 3); format: biochemical, Agrobacterium rhizogenes 1215; conditions: coenzyme replaced by thio-NADP
Source text: as §1

[4] = tested on: crude enzyme which catalyses chiroinositol, S. r. 301 origin; test: Km value for D-chiroinositol; format: biochemical, Streptomyces roseogriseus 301
Experimental: (§2) Km value for D-chiroinositol is shown. Measurement is performed by changing substrate concentration in the above assay method.

[5] = tested on: crude enzyme which catalyses chiroinositol, A. r. 1215 origin; test: Km value for D-chiroinositol; format: biochemical, Agrobacterium rhizogenes 1215
Experimental: as §2

[6] = tested on: dehydrogenase which catalyses chiroinositol (Bacillus sp. No. 3 origin); test: Km value; format: biochemical
Experimental: 100 mM glycine-NaOH buffer (pH 11.0)
1 mM NAD (Oriental Yeast Corp., Japan)
10 mM D-chiroinosiol (Wako Pure Chemicals Inc., Japan)
The above reaction solution 1 ml in quartz cell is set in spectrophotometer which is (controlled at 37° C. After over 5 minutes incubation, aliquot diluted enzyme solution 20 μl is added and stirred. Absorption changes per minute at A340 are measured to obtain initial reaction rate and to calculate relative activity.
Km values are measured at various concentrations using 10 mM
D-chiroinositol and mM NAD.
Km for thio-NAD is measured by replacing NAD to thio-NAD.

[7] = tested on: crude enzyme which catalyses chiroinositol, S. r. 301 origin; test: Relative activities using various coenzymes (Table 2); format: biochemical, Streptomyces roseogriseus 301; conditions: activity using NAD is set as 100%
Source text: (§3) The same as in the enzyme originated from Bacillus sp. No. 3.
(§4) The same as in the enzyme originated from Bacillus sp. No. 3. Relative activities using various coenzymes are shown in Table 2 (activity using NAD is set as 100%).

[8] = tested on: dehydrogenase which catalyses chiroinositol (Bacillus sp. No. 3 origin); test: Initial rate of enzyme reaction with various coenzymes; format: biochemical; conditions: 10 mM D-chiroinositol, 1 mM coenzyme; for Initial rate of enzyme reaction: 37° C., at optimum pH; for Optimum pH for the coenzyme: 100 mM Gly-NaOH buffer
Experimental: 100 mM Gly-NaOH buffer approx. pH 10 (at optimum pH)
10 mM D-chiroinositol (Wako Pure Chemicals Inc., Japan)
1 mM Coenzyme (NAD(P), thio-NAD(P); Oriental Yeast
Optimum pH are pH 11.0 for NAD, deamino NAD and thio-NAD, pH 10.5 for acetyl NAD, and pH 10.0 for aldehyde NAD and NADP.
The above reaction solution 1 ml in quartz cell is set in spectrophotometer which is controlled at 37° C. After over 5 minutes incubation, enzyme solution 140 U/ml (NAD and deamino NAD; 14 U/ml) 20 μl is added and stirred. Absorption changes per minute in specific wavelength for each reduced coenzyme is measured to obtain initial reaction rate. (For NAD and deamino NAD, measured value is increased number by ten for adjusting the amount of enzyme.)

[9] = tested on: crude enzyme which catalyses chiroinositol, A. r. 1215 origin; test: Relative activities using various coenzymes (Table 2); format: biochemical, Agrobacterium rhizogenes 1215; conditions: activity using NAD is set as 100%
Source text: as §3, §4

[10] = tested on: dehydrogenase which catalyses chiroinositol (Bacillus sp. No. 3 origin); test: Initial rate of enzyme reaction with various coenzymes; format: biochemical; conditions: thio-NAD forward reaction, NADH reverse reaction
[11] = NAD and deamino NAD values increased by ten for enzyme amount

| Compound | Relative activity, S.r.301 origin [1] [%] | Relative activity [2] [%] | Relative activity, A.r.1215 origin [3] [%] | Relative activity, S.r.301 origin [7] [%] | Optimum pH for the coenzyme [8] [pH] | Relative activity, A.r.1215 origin [9] [%] | also measured |
| --- | --- | --- | --- | --- | --- | --- | --- |
| O[C@H]1[C@H](O)[C@H](O)[C@@H](O)[C@H](O)[C@H]1O [D-chiroinositol] | 100 | 100 | 100 | – | – | – | Km [4]: 27.6 ± 1 mM; Km [5]: 30.6 ± 1 mM; Km ([6]; NAD replaced by thio-NAD): 12.8 ± 0.5 mM; Km ([6]; coenzyme NAD): 5.2 ± 0.5 mM |
| NC(=O)c1ccc[n+]([C@@H]2O[C@H](COP(=O)([O-])OP(=O)(O)OC[C@H]3O[C@@H](n4cnc5c(N)ncnc54)[C@H](O)[C@@H]3O)[C@@H](O)[C@H]2O)c1 [NAD, nicotinamide adenine dinucleotide] | – | – | – | 100 | 11.0 | 190 | Km ([6]; coenzyme NAD): 0.5 ± 0.1 mM; Initial rate of enzyme reaction [8, 11]: 13 Abs/min. |
| NC(=O)C1=CN([C@@H]2O[C@H](COP(=O)(O)OP(=O)(O)OC[C@H]3O[C@@H](n4cnc5c(N)ncnc54)[C@H](O)[C@@H]3O)[C@@H](O)[C@H]2O)C=CC1 [NADH] | – | – | – | – | – | – | Optimum pH of reaction in the cycling reaction [10]: ~10.0 pH |
| NC(=O)c1ccc[n+]([C@@H]2O[C@H](COP(=O)([O-])OP(=O)(O)OC[C@H]3O[C@@H](n4cnc5c(N)ncnc54)[C@H](OP(=O)(O)O)[C@@H]3O)[C@@H](O)[C@H]2O)c1 [NADP] | – | – | – | 0 | 10.0 | 1855 | Initial rate of enzyme reaction [8]: 80 mAbs/min. |
| CC(=O)c1ccc[n+]([C@@H]2O[C@H](COP(=O)([O-])OP(=O)(O)OC[C@H]3O[C@@H](n4cnc5c(N)ncnc54)[C@H](O)[C@@H]3O)[C@@H](O)[C@H]2O)c1 [acetyl NAD, acetylpyridine adenine dinucleotide] | – | – | – | 195 | 10.5 | 26 | Initial rate of enzyme reaction [8]: 260 mAbs/min. |
| Nc1ncnc2c1ncn2[C@@H]1O[C@H](COP(=O)(O)OP(=O)([O-])OC[C@H]2O[C@@H]([n+]3cccc(C=O)c3)[C@H](O)[C@@H]2O)[C@@H](O)[C@H]1O [aldehyde NAD, pyridine aldehyde adenine dinucleotide] | – | – | – | 20 | 10.0 | 15 | Initial rate of enzyme reaction [8]: 140 mAbs/min. |
| NC(=O)c1ccc[n+]([C@@H]2O[C@H](COP(=O)([O-])OP(=O)(O)OC[C@H]3O[C@@H](n4cnc5c(=O)[nH]cnc54)[C@H](O)[C@@H]3O)[C@@H](O)[C@H]2O)c1 [deamino NAD, nicotinamide hypoxanthine dinucleotide] | – | – | – | 110 | 11.0 | 44 | Initial rate of enzyme reaction [8, 11]: 12 Abs/min. |
| O[C@H]1[C@@H](O)[C@@H](O)[C@@H](O)[C@@H](O)[C@@H]1O [epi-inositol] | 4 | 0 | 0 | – | – | – | – |
| O=C(CO)[C@@H](O)[C@H](O)[C@H](O)CO [fructose] | 0 | 0 | 0 | – | – | – | – |
| OC[C@@H](O)[C@@H](O)[C@H](O)[C@H](O)CO [mannitol] | 0 | 0 | 0 | – | – | – | – |
| O[C@H]1[C@H](O)[C@@H](O)[C@H](O)[C@@H](O)[C@H]1O [myoinositol] | 0 | 9 | 33 | – | – | – | – |
| O[C@H]1[C@H](O)[C@@H](O)[C@H](O)[C@@H](O)[C@@H]1O [scylloinositol] | 0 | 0 | 0 | – | – | – | – |
| NC(=S)c1ccc[n+]([C@@H]2O[C@H](COP(=O)([O-])OP(=O)(O)OC[C@H]3O[C@@H](n4cnc5c(N)ncnc54)[C@H](O)[C@@H]3O)[C@@H](O)[C@H]2O)c1 [thio-NAD, thio-nicotinamide adenine dinucleotide] | – | – | – | 6 | 11.0 | 0 | Km ([6]; NAD replaced by thio-NAD): 0.9 mM and 0.87 mM; Initial rate of enzyme reaction [8, 11]: 2.5 Abs/min.; Optimum pH of reaction in the cycling reaction [10]: ~10.5 pH |
| NC(=S)c1ccc[n+]([C@@H]2O[C@H](COP(=O)([O-])OP(=O)(O)OC[C@H]3O[C@@H](n4cnc5c(N)ncnc54)[C@H](OP(=O)(O)O)[C@@H]3O)[C@@H](O)[C@H]2O)c1 [thio-NADP] | – | – | – | 0 | – | 269 | – |
| galactose | – | 0 | – | – | – | – | – |
| mannose | 0 | 0 | 10 | – | – | – | – |
